# In patent US5821252A, “Method of blocking nerve conduction by treatment with branched-chain esters of 2-[4-(2-piperidine-ethoxy)-benzoyl]-benzoic acid and pharmaceutically acceptable salts thereof” (priority 1988, dated 1998):
# Like-named read-outs stand apart in the source and are kept apart here.
# Tests used:
# colonic motility = assay: Motility of the large bowel (colonic motor complex) in conscious dogs; format: in vivo, dog
# Excerpt: Male dogs (THG Tierhandelsgesellschaft Rodenbach, Hoe:BEAK (Beagle)) weighing 15-20 kg were used in all experiments.
# (§1) At least 4 weeks prior the experiment the dogs had been equipped with miniaturized strain gage force transducers (T1-T2) (2×4 mm), sutured onto the gut at the locations mentioned below. The cables of the transducers were embedded into a cannula which carried the plug for external electric connection. This stainless steel cannula was implanted into the abdominal wall, close below the costal arch. Each transducer was connected to a measuring bridge. The signals were on-line stored using a HP 9835 A computer, thereby allowing later analysis of the data.
# T1: Colon ascendens 10 cm aborafrom the ileoceval valve (ICV)
# T2: Colon transversum 25 cm aborad from the ICV
# 18 hours prior to the experiment food was withdrawn from the animals, water ad libidum All experiments started between 08:00 and 09:00 am.
# The following parameters were determined:
# The duration of the cycle (min)
# The duration of the colonic motor complex (CMC) (min)
# The maximal height of the concentrations (AU: arbitrary units)
# Data from the two recording sites (T1-T2) were pooled. […]
# Statistical methods: For detection of significant differences (p<0.05) the unpaired t-test was used. Only significant differences were indicated by *.
# small intestine motility [1] = assay: Small intestinal motility in the conscious dog, phase I and II activity; format: in vivo; conditions: for rank order of potency: spontaneous motility of small intestine, conscious dog
# Excerpt: as §1, with “Male dogs (THG Tierhandelsgesellschaft Rodenbach, Hoe: BEAK (Beagle)) weighing 15-20 kg were used in all experiments. At” for “At”, “prior to” for “prior”, “(T1-T3)” for “(T1-T2)”, “on line” for “on-line”, “computer,” for “computer, thereby”
# (§2) 18 hours prior to the experiment food was withdrawn from the animals, water ad libidum. All experiments started between 08:00 and 09:00 am.
# (§3) The following motility parameters were determined:
# The integral under the concentration curves at 10 min intervals (mN×10min) as an index of phase I+II activity. The duration of drug action (min.)
# (§4) The duration of the interdigestive migrating complex (IMC) (min) as a measure of phase III activity.
# (§5) Test Compound II was given at doses of 0.2 and 0.5 mg/kg i.v. or 5 mg/kg i.g., dissolved in saline, in a volume of 1 ml/kg (i.v.) or 2 ml/kg (i.g.), n=3-6. Control n=26.
# Reference substances: Buscopan, pitofenon.
# Buscopan was given at doses of 0.3 and 1 mg/kg i.v., dissolved in saline, in a volume of 1 ml/kg, n=4-6. Pitofenone was given at doses of 1 mg/kg i.v., dissolved in saline, in a volume of 1 ml/kg, n=8.
# 1D50 -values were determined graphically.
# small intestine motility [2] = assay: Small intestinal motility in the conscious dog, phase III activity, intragastrical; format: in vivo; conditions: 5 mg/kg intragastrically
# Excerpt: as §1, with “Male dogs (THG Tierhandelsgesellschaft Rodenbach, Hoe: BEAK (Beagle)) weighing 15-20 kg were used in all experiments. At” for “At”, “prior to” for “prior”, “(T1-T3)” for “(T1-T2)”, “on line” for “on-line”, “computer,” for “computer, thereby”
# as §2, §3, §4, §5
# Porcine liver esterase = assay: Enzymatic hydrolysis rates by porcine liver esterase; format: in vitro ADME; conditions: 1 mM, pH 8.0, 37° C.
# Description: Porcine liver esterase (0.5 U=2 μg) was preincubated in 40 mM Tris-HCl buffer, pH 8.0, at 37° C. for 5 min. The reaction was initiated with the addition of the test compound (final concentration, 1 mM) in the final volume of 250 μl. Enzyme reaction was terminated at different time intervals by the addition of 60 μl of 1M acetic acid. The solution was made alkaline (pH 10.5) by adding 0.4M NaOH and the alkaline solution was rapidly extracted (three times) with 2.5 ml of chloroform. An aliquot of the aqueous supernatant was diluted with double distilled water and the absorbance was measured at 290 nm. Amount of test compound III (molar extinction=14,400) formed was calculated.
# Guinea pig ileum = assay: Antispasmodic activity in isolated guinea pig ileum (acetylcholine contraction); format: cell-based; conditions: for Duration of action: isolated guinea pig ileum
# Description: Small intestines obtained from freshly sacrificed guinea pigs (weight range, 200-400 g) of either sex were cleaned and stored in tyrode solution. A piece of ileum was mounted in an organ bath containing tyrode solution at 37° C. and maintained at a tension of 0.5 to 1.0 g. The solution was continuously aerated with compressed air. After an initial equilibration period, a sub-maximal dose of acetylcholine required for measurable contraction was standardized. Tension changes were monitored using an isotonic strain gauge attached to the tissue and the responses were recorded on a strip chart recorder. Antispasmodic activity of test compounds at different concentrations was followed and the IC50, values were calculated from dose response curves.
# sciatic nerve = assay: Conduction block anaesthesia in the rat, injection near sciatic nerve; format: in vivo; conditions: for blockade of nerve conduction: injected near the sciatic nerve, hydrochloride
# Description: Conduction block anaesthesia was produced in the rat using compound II [(Isopropyl 2-(4-2-piperidinoethoxy)-benzoyl)benzoate hydrochloride] according to the method of Traunt. (Traunt, A. P. Arch. Int. Phamacodyn. 115:483-497,1957).
# The conduction block produced was of long duration and required a number of days for complete recovery. A dose of 20 mg/kg compound II blocked nerve conduction in the rat for about 33 days. Ten mg/kg of compound II blocked the nerve for 18±2 days (n=25). In comparison, 10 mg/kg of lignocaine, a standard local anesthetic, produced conduction block for only 0.086±0.01 days (n-10). […] This long lasting but reversible blockade of nerve conduction is of significant interest in the treatment of cancers, neuralgias and post-surgical states.
# [3] = cited from earlier work
Structure (SMILES),rank order of potency (small intestine motility [1]),μmol test compound III formed per mg protein per ml (Porcine liver esterase; time 0.0 hours),μmol test compound III formed per mg protein per ml (Porcine liver esterase; time 0.5 hours),μmol test compound III formed per mg protein per ml (Porcine liver esterase; time 2.0 hours),μmol test compound III formed per mg protein per ml (Porcine liver esterase; time 3.5 hours),Duration of action (Guinea pig ileum) [min],duration of nerve conduction block (sciatic nerve; 10 mg/kg near sciatic nerve) [days],further results
CCCC[N+]1(C)[C@@H]2C[C@@H](OC(=O)[C@H](CO)c3ccccc3)C[C@H]1[C@@H]1O[C@@H]12 (some centres unmarked) [Buscopan],Test Compound II>buscopan>pitofenon,–,–,–,–,–,–,"Max. height of CMC (colonic motility; 3 mg/kg intragastrically): 35 ± 17 AU; effect on colonic motility (colonic motility; 3 and 10 mg/kg i.g.): no effect on colonic motility; Duration of action (small intestine motility [1]; 1 mg/kg i.v., until postdrug values reached 90% or more of predrug): 30 min"
"CC(C)OC(=O)c1ccccc1C(=O)c1ccc(OCCN2CCCCC2)cc1.Cl [Test compound II, Isopropyl-2-[4-(2-piperidino-ethoxy)-benzoyl]-benzoate hydrochloride]",Test Compound II>buscopan>pitofenon,0.00 μmol per mg protein per ml,0.05 μmol per mg protein per ml,0.10 μmol per mg protein per ml,0.10 μmol per mg protein per ml,> 7.0,18 ± 2,inhibition of phase III activity (small intestine motility [2]): a pronounced inhibition of phase III activity; effect on colonic motility (colonic motility; 1 mg/kg i.g.): uneffective; inhibition of colonic motility (colonic motility; 4 mg/kg i.g. (so in the source)): inhibited colonic motility (CMC in the conscious dog completely; duration of nerve conduction block (sciatic nerve; 20 mg/kg near sciatic nerve): about 33 days; blockade of nerve conduction (sciatic nerve; listed as Compound II): dose-dependent blockade of nerve conduction; blockade of nerve conduction (sciatic nerve; listed as compound II): reversible blockade of nerve conduction lasting for hours to days; duration of inhibitory effect (small intestine motility [1]; 0.5 mg/kg i.v.): approximately one
CCN(CC)CC(=O)Nc1c(C)cccc1C [lignocaine],–,–,–,–,–,–,0.086 ± 0.01,–
"COC(=O)c1ccccc1C(=O)c1ccc(OCCN2CCCCC2)cc1.Cl [Test compound I, Methyl-2-[4-(2-piperidino-ethoxy)-benzoyl]-benzoate hydrochloride]",Test Compound II>buscopan>pitofenon,0.00 μmol per mg protein per ml,0.50 μmol per mg protein per ml,1.62 μmol per mg protein per ml,2.78 μmol per mg protein per ml,< 1.5,–,"antispasmodic activity ([3]; administered intravenously): potent antispasmodic activity; antispasmodic activity ([3]; administered orally): considerably reduced; metabolism of methyl ester to the corresponding acid ([3]; oral): rapid metabolism of the methyl ester to the corresponding acid; IC50 (Guinea pig ileum; Cavia porcellus, acetylcholine contraction, isolated ileum, 37° C.): 1 µg/mL"
